According to patent publication US11884643B2, “Substituted thiophenecarboxamides and analogues as antibacterials agents” (priority 2018, dated 2024):
Like-named read-outs stand apart in the source and are kept apart here.

Experiments:
[1] = Log P by HPLC on reversed phase columns (EEC directive 79/831 Annex V.A8); assay type: physicochemical
Description: If more than one Log P value is available within the same method, all the values are given and separated by “+”. Calibration was done with straight-chain alkan2-ones (with 3 to 16 carbon atoms) with known Log P values (measurement of Log P values using retention times with linear interpolation between successive alkanones). Lambda-max-values were determined using UV-spectra from 200 nm to 400 nm and the peak values of the chromatographic signals.

[2] = tested on: Xanthomonas campestris pv. Campestris; assay: Xanthomonas campestris pv. Campestris in vitro cell test (bacteria growth in liquid culture); assay type: cell-based; conditions: 20 ppm of tested compound, 24 h of incubation
Description: Culture medium: LB broth medium (Luria Broth Miller) Sigma
Inoculum: bacteria suspension
Compounds to be tested were solubilized in DMSO and the solution used to prepare the required range of concentrations. The final concentration of DMSO used in the assay was ≤1%.
Inoculum was prepared from a pre-culture of bacteria grown in liquid medium and diluted to the desired optical density (OD).
Compounds were evaluated for their ability to inhibit bacteria growth in liquid culture assay. The compounds were added in the desired concentrations to culture medium containing the bacteria suspension. After 24 h of incubation, the efficacy of compounds was determined by spectrometric measurement of bacteria growth. Inhibition was determined by comparing the absorbance values in wells containing the compounds with the absorbance in control wells without compounds.

[3] = method [a]: LC-UV, acidic range, 0.1% formic acid in water and acetonitrile as eluent
[4] = reversed phase HPLC columns, method [a]: LC-UV, acidic range, 0.1% formic acid in water and acetonitrile as eluent, read-out: LogP
[5] = reversed phase HPLC columns, value given in preparation example, method letter not indicated, read-out: Log P

Row | SMILES | LogP [1, 3] | other results
1 | O=C1OC(c2sc(Br)c(Br)c2F)=NC12CC2 [III.01, 5-(4,5-dibromo-3-fluoro-2-thienyl)-6-oxa-4-azaspiro[2.4]hept-4-en-7-one] |  | chromatographic logP ([1]; Log P): 3.58; chromatographic logP ([1]; LogP): 3.57; direct activity (inhibition of bacteria growth) [2]: no direct activity
2 | Cc1c(C2=NC3(CC3)C(=O)O2)sc(Br)c1Br [III.02] | 4.33^[a] | direct activity (inhibition of bacteria growth) [2]: no direct activity
3 | O=C1OC(c2sc(Cl)c(Cl)c2Cl)=NC12CC2 [III.03] | 4.01^[a] | direct activity (inhibition of bacteria growth) [2]: no direct activity
4 | Cc1c(C2=NC3(CC3)C(=O)O2)sc(Cl)c1Cl [III.04] | 4.30^[a] | direct activity (inhibition of bacteria growth) [2]: no direct activity
5 | O=C1OC(c2sc(Br)c(Br)c2I)=NC12CC2 [III.05] | 4.30^[a] | direct activity (inhibition of bacteria growth) [2]: no direct activity
6 | O=C1OC(c2sc(Br)c(Br)c2Br)=NC12CC2 [III.06] | 4.15^[a] | 
7 | O=C1OC(c2sc(Cl)c(Cl)c2Br)=NC12CC2 [III.07] | 4.12^[a] | 
8 | O=C1OC(c2sc(Br)c(Br)c2Cl)=NC12CC2 [III.08] | 4.08^[a] | 
9 | O=C1OC(c2sc(Cl)c(Cl)c2I)=NC12CC2 [III.09] | 4.23^[a] | 
10 | CCOC(=O)C1(NC(=O)c2sc(Br)c(Br)c2F)CC1 [XXI.01, ethyl 1-{[(4,5-dibromo-3-fluoro-2-thienyl)carbonyl]amino}cyclopropanecarboxylate] |  | chromatographic logP [1, 4]: 3.17; chromatographic logP [1, 5]: 3.15
11 | O=C(NC1(C(=O)O)CC1)c1sc(Br)c(Br)c1F [XXI.03, 1-{[(4,5-dibromo-3-fluoro-2-thienyl)carbonyl]amino}cyclopropanecarboxylic acid] |  | chromatographic logP [1, 4]: 2.14; chromatographic logP [1, 5]: 2.15
12 | CCOC(=O)C1(NC(=O)c2sc(Cl)c(Cl)c2Cl)CC1 [XXI.05, ethyl 1-{[(3,4,5-trichloro-2-thienyl)carbonyl]amino}cyclopropanecarboxylate] | 3.41^[a] | 
13 | CCOC(=O)C1(NC(=O)c2sc(Cl)c(Cl)c2I)CC1 [XXI.08, ethyl 1-{[(4,5-dichloro-3-iodo-2-thienyl)carbonyl]amino}cyclopropanecarboxylate] |  | chromatographic logP [1, 4]: 3.39
14 | CCOC(=O)C1(NC(=O)c2sc(Cl)c(Cl)c2C)CC1 [XXI.11, ethyl 1-{[(4,5-dichloro-3-methyl-2-thienyl)carbonyl]amino}cyclopropanecarboxylate] |  | chromatographic logP [1, 4]: 3.16; chromatographic logP [1, 5]: 3.16
15 | Cc1c(C(=O)NC2(C(=O)O)CC2)sc(Cl)c1Cl [XXI.14] | 2.17^[a] | 
16 | O=C(NC1(C(=O)O)CC1)c1sc(Cl)c(Cl)c1Br [XXI.22] | 2.37^[a] | 
17 | O=C(O)c1sc(Cl)c(Cl)c1Br [XXIIa.06] | 2.52^[a] | 
18 | COC(=O)c1sc(Cl)c(Cl)c1Br [XXIIa.09] | 4.11^[a] | 
19 | CC(C)COC(=O)c1sc(Cl)c(Cl)c1Cl [XXIIa.13] | 5.75^[a] | 
20 | CCOC(=O)C1(NC(=O)c2sc(Cl)c(Cl)c2N)CC1 [XXVIII.01, ethyl 1-{[(3-amino-4,5-dichloro-2-thienyl)carbonyl]amino}cyclopropanecarboxylate] | 2.77^[a] | Log P ([1]; value given in preparation example, method letter not indicated): 2.77
21 | Cl.Nc1c(C(=O)O)sc(Cl)c1Cl [XXXa.02, 3-amino-4,5-dichlorothiophene-2-carboxylic acid hydrochloride (1:1)] | 2.05^[a] | 
